Here are results for one compound from ChEMBL document CHEMBL3108712, “Viniphenol A, a complex resveratrol hexamer from Vitis vinifera stalks: structural elucidation and protective effects against amyloid-β-induced toxicity in PC12 cells” (J Nat Prod, 2014).

The assay relates to PC-12. Briefly: Neuroprotective activity against amyloid beta (25 to 35)-induced toxicity in rat PC12 cells assessed as cell viability preincubated for 48 hrs with amyloid beta (25 to 35) followed by addition to cell culture measured after 24 hrs by MTT assay. Type of assay: functional, cell-based. (Formazan colour is commonly taken as a measure of viable cells.)

For the compound `Oc1ccc([C@@H]2c3c(O)cc(O)cc3[C@H]3c4c(cc(O)cc4[C@@H]2[C@@H](c2ccc(O)cc2)[C@@H]2c4cc(O)cc5c4[C@H](c4cc(O)cc(O)c4[C@@H](c4ccc(O)cc4)[C@@H]2c2cc(O)cc4c2[C@H](c2cc(O)cc(O)c2)[C@@H](c2ccc(O)cc2)O4)[C@@H](c2ccc(O)cc2)O5)O[C@@H]3c2ccc(O)cc2)cc1`, the Activity result is “Dose-dependent effect”.
